Reference: patent publication US20170119020A1, “METHOD OF FEEDING AN ANIMAL” (CARGILL, INCORPORATED, priority 2014, published 2017)
Marks after values point to notes of the source that are not given here.

Experiments:
sows and piglets [1] = test: Total antioxidant status (TAS) in serum of sows and piglets (Example 10); assay type: in vivo, pig; settings: for Total antioxidant status (TAS) in serum of piglets: piglets at 21 days
Description: (§1) The performance following criteria were monitored during the trial: (i) Sows response criteria (actual parity, farrowing rate, culled sows—number and reasons, wean-to-mating interval, farrowing rate in the next cycle); (ii) litter response criteria (number of piglets, total, alive, stillborn, mummies; weight of piglets and litters; survival). The following biochemical (blood) criteria were monitored during the trial for the sows (mating, farrowing and weaning), piglets 21st day: (i) glutathione peroxidase (GPx) activity; (ii) superoxide dismutase (SOD) activity; (iii) total antioxidant status (TAS); (iv) vitamin E content; (v) vitamin A content.
(§2) To determine the oxidative status, the blood samples were collected from sows and piglets into tubes with lithium anticoagulant—received whole blood for analysis. At the same time blood samples were taken for blood clot. They were centrifuged (1500 rpm, 15 Temp. 4° C.) and obtained serum was pipetted into separate tubes.
(§3) In studies of oxidative status of sows and piglets were used suitable to each of the indicators, the reagent kits from Sigma-Aldrich. Determination was made in accordance with the descriptions of the rules and procedures specified by the manufacturer.
(§4) The content of the TAS (total antioxidant status) were determined using the Antioxidant assay kit (Cat. No CS0790), the activity of SOD (superoxide dismutase) was determined using SOD determination kit 19160, the activity of GPx (glutathione Peroxide assai Cellular Activity Kit) Cat. No CGP1. The content of vitamins A and E by McMurray and Blanchflower 1979 (Journal of Chromatography 178, 525-531.). TAS
Serum samples (10 ul) in duplicate were incubated at room temperature for 5 minutes with the working solution of ABTS (2,2-azino-bis (3-ethylbenzthiazoline-6-sulfonic acid) (150 pl) and the solution with myoglobin (20 pl). Simultaneously the calibration curve was performed based on serial dilutions of Trolox equivalent in the range of 0.015 to 0.42 mM (mmol).
The formed a ferryl radical from myoglobin and hydrogen peroxide causes oxidation of ABTS and production of radical cation ABTS*. The resulting chromogen has a blue-green color. In the presence of antioxidants the radical cation is suppressed to an extent dependent on the activity of the antioxidant and the color intensity is decreased proportionally. The color was measured with a spectrophotometer at a wavelength of 405 nm.

sows and piglets [2] = test: Glutathione peroxidase (GPx) activity in blood of sows and piglets (Example 10); assay type: in vivo, pig; settings: for Activity of glutathione peroxidase (GPx) in blood of piglets: piglets at 21 days
Description: as §1, §2, §3, §4
Whole blood samples (blood collection from animals to tubes with lithium anticoagulant) in duplicate (10 pl) was added to […] of buffer (pH 8), mixed (vortex—10′), then added 10 pl of a 70% aqueous solution of tert-butyl Hydroperoxide, mixed (by inversion) and the absorbance was measured immediately in a spectrophotometer at a wavelength of 340 nm. After 1 minute the measurement was repeated. Simultaneously blank samples (reagent) were performed and a calibration curve based on GPx serial dilutions in the range of 20 to 50 U/ml. The decrease in NADPH absorbance (during 1 minute) measured at 340 nm during the oxidation of NADPH to NADP+ is indicative of GPx activity.

[3] = Breeding, Group 2: vitamin E 50/75 mg/kg diet
[4] = Breeding, Group 3: vitamin E 100/150 mg/kg diet
[5] = Farrowing, Group 2: vitamin E 50/75 mg/kg diet
[6] = Farrowing, Group 3: vitamin E 100/150 mg/kg diet
[7] = Weaning, Group 2: vitamin E 50/75 mg/kg diet
[8] = Weaning, Group 3: vitamin E 100/150 mg/kg diet
[9] = Group 2: vitamin E 50/75 mg/kg sow diet
[10] = Group 3: vitamin E 100/150 mg/kg sow diet

Cc1c(C)c2c(c(C)c1O)CCC(C)(CCCC(C)CCCC(C)CCCC(C)C)O2 (racemic) [Vitamin E, DL-α-tocopherol]
Total antioxidant status (TAS) in serum of sows (sows and piglets [1]; [3]): 1.26 mmol/L
Total antioxidant status (TAS) in serum of sows (sows and piglets [1]; [4]): 1.29 mmol/L
Total antioxidant status (TAS) in serum of sows (sows and piglets [1]; [5]): 1.18^a mmol/L
Total antioxidant status (TAS) in serum of sows (sows and piglets [1]; [6]): 1.19^a mmol/L
Total antioxidant status (TAS) in serum of sows (sows and piglets [1]; [7]): 1.18^B mmol/L
Total antioxidant status (TAS) in serum of sows (sows and piglets [1]; [8]): 1.20^Ba mmol/L
Total antioxidant status (TAS) in serum of piglets (sows and piglets [1]; [9]): 1.16^B mmol/L
Total antioxidant status (TAS) in serum of piglets (sows and piglets [1]; [10]): 1.18^A mmol/L
Activity of glutathione peroxidase (GPx) in blood of sows (sows and piglets [2]; [3]): 37.73 U/ml
Activity of glutathione peroxidase (GPx) in blood of sows (sows and piglets [2]; [4]): 38.85 U/ml
Activity of glutathione peroxidase (GPx) in blood of sows (sows and piglets [2]; [5]): 32.77^C U/ml
Activity of glutathione peroxidase (GPx) in blood of sows (sows and piglets [2]; [6]): 37.64^B U/ml
Activity of glutathione peroxidase (GPx) in blood of sows (sows and piglets [2]; [7]): 34.78^C U/ml
Activity of glutathione peroxidase (GPx) in blood of sows (sows and piglets [2]; [8]): 36.48^B U/ml
Activity of glutathione peroxidase (GPx) in blood of piglets (sows and piglets [2]; [9]): 29.12^B U/ml
Activity of glutathione peroxidase (GPx) in blood of piglets (sows and piglets [2]; [10]): 29.91^B U/ml
